Some results are limits rather than exact numbers.

Results on 31 compounds are retold here after patent publication US20260232666A1, “COMPOSITIONS AND METHODS FOR INHIBITION OF RAS” (TheRas, Inc., priority 2023, published 2026).

The target of test [1] is T1, GTP-loaded KRAS4b (amino acids 1-169) G12C/C118S protein (Homo sapiens, UniProt P01116, C118S/G12C).
T1 construct: KRAS4b (amino acids 1-169) G12C/C118S protein; made in house
Briefly: Covalent cysteine 12 modification by MALDI-TOF MS, GTP-loaded KRAS G12C. The test is classed as binding. The settings on record: 15 minutes reaction time point. Summed up:
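With several adducts, each species' height is expressed as a fraction of all observed protein peaks, scored on linear-mode spectra. Reactions run at pH 7.3 (HEPES, 150 mM NaCl, 1 mM MgCl2), using 1 μM protein and a 1:2.5 protein:compound ratio, and are sampled after 15 minutes in the dark.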

Another test concerns pERK in NCI-H358 cells. Briefly: Cell-based pERK HTRF assay (pERK inhibition in H358 cells). As to conditions: 30 min incubation. The procedure, abridged:
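NCI-H358 cells were seeded at 4×10^4 cells/well in RPMI/10% FBS, then treated next day for 30 min at 0.25% DMSO (9-point, 3-fold series from 75 μM). Lysates were read by HTRF (d2/Eu cryptate antibody pair, 615 nm emission) after 4–24 h at room temperature to give pERK IC50.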

The IC50 is the concentration that inhibits the measured activity by half. For `C=CC(=O)N1CC[C@@H](N(CC)c2nc(OC[C@@]34CCCN3C[C@H](F)C4)nc3c(F)c(-c4ccc(F)c5sc(N)c(C#N)c45)ccc23)[C@H]1C` [Compound 17, 4-(4-(((2R,3R)-1-acryloyl-2-methylpyrrolidin-3-yl)(ethyl)amino)-8-fluoro-2-(((2R,7aS)-2-fluorotetrahydro-1H-pyrrolizin-7a(5H)-yl)methoxy)quinazolin-7-yl)-2-amino-7-fluorobenzo[b]thiophene-3-carbonitrile], the “GTP-KRAS G12C percent of modification” value in test [1] is listed as “A (percent of modification ≥70%)”. For the same compound, the IC50 in the test on pERK in NCI-H358 cells (Homo sapiens, NCI-H358, 0.5 h) was less than 100 nM.
Taken in the same sequence, the figures for `C=CC(=O)N1CC[C@@H](N(C)c2nc(OC[C@@]34CCCN3C[C@H](F)C4)nc3c(F)c(-c4ccc(F)c5sc(N)c(C#N)c45)c(C(F)(F)F)cc23)[C@H]1CC` [Compound 18] were “C (10%≤percent of modification <50%)” and less than 100 nM.
Turning to `C=CC(=O)N1CC[C@@H](N(C)c2nc(OC[C@@]34CCCN3C[C@H](F)C4)nc3c(F)c(-c4ccc(F)c5sc(N)c(C#N)c45)c(Cl)cc23)[C@H]1CC` [Compound 19], the “GTP-KRAS G12C percent of modification” value in test [1] is given as “C (10%≤percent of modification <50%)”. This compound also gave an IC50 in the test on pERK in NCI-H358 cells (Homo sapiens, NCI-H358, 0.5 h) of less than 100 nM.
Taken in the same sequence, the figures for `C=CC(=O)N1CC[C@@H](N(CC)c2nc(OC[C@@]34CCCN3C[C@H](F)C4)nc3c(F)c(-c4ccc(F)c5sc(N)c(C#N)c45)c(Cl)cc23)[C@H]1CC` [Compound 20] were “C (10%≤percent of modification <50%)” and less than 100 nM.
On the same counts, the results for `C=CC(=O)N1CC[C@@H](N(C)c2nc(OC[C@@]34CCCN3C[C@H](F)C4)nc3cc(-c4ccc(F)c5sc(N)c(C#N)c45)c(F)cc23)[C@@H]1CC` [Compound 22] are “D (percent of modification <10%)” and less than 100 nM.
Taken in the same sequence, the figures for `C=CC(=O)N1CC[C@@H](N(C)c2nc(OC[C@@]34CCCN3C[C@H](F)C4)nc3c(F)c(-c4ccc(F)c5sc(N)c(C#N)c45)ccc23)[C@@H]1CC` [Compound 23] were “C (10%≤percent of modification <50%)” and less than 100 nM.
As for `C=CC(=O)N1CC[C@@H](N(C)c2nc(OC[C@@]34CCCN3C[C@H](F)C4)nc3cc(-c4ccc(F)c5sc(N)c(C#N)c45)c(C#N)cc23)[C@@H]1CC` [Compound 24], the “GTP-KRAS G12C percent of modification” value in test [1] is listed as “D (percent of modification <10%)”. Besides, the IC50 in the test on pERK in NCI-H358 cells (Homo sapiens, NCI-H358, 0.5 h) was less than 100 nM.
On the same counts, the results for `C=CC(=O)N1CC[C@@H](N(CC)c2nc(OC[C@@]34CCCN3C[C@H](F)C4)nc3cc(-c4ccc(F)c5sc(N)c(C#N)c45)c(C#N)cc23)[C@H]1C` [Compound 25] are “A (percent of modification ≥70%)” and less than 100 nM.
Taken in the same sequence, the figures for `C=CC(=O)N1CC[C@@H](N(C)c2nc(OC[C@@]34CCCN3C[C@H](F)C4)nc3cc(-c4ccc(F)c5sc(N)c(C#N)c45)c(C#N)cc23)[C@@H]1C` [Compound 27] were “B (50≤percent of modification <70%)” and less than 100 nM.
For `C=CC(=O)N1CC[C@@H](N(C)c2nc(OC[C@@]34CCCN3C[C@H](F)C4)nc3cc(-c4ccc(F)c5sc(N)c(C#N)c45)c(F)cc23)[C@H]1CC` [Compound 29], the “GTP-KRAS G12C percent of modification” value in test [1] was “A (percent of modification ≥70%)”. This compound returned an IC50 in the test with pERK in NCI-H358 cells (Homo sapiens, NCI-H358, 0.5 h) of less than 100 nM.
On the same counts, the results for `C=CC(=O)N1CC[C@@H](N(C)c2nc(OC[C@@H]3CCCN3CC)nc3c(F)c(-c4ccc(F)c5sc(N)c(C#N)c45)c(C(F)(F)F)cc23)[C@@H]1C` [Compound 30] are “B (50≤percent of modification <70%)” and less than 100 nM.
Consider `C=CC(=O)N1CC[C@@H](N(C)c2nc(OC[C@@]34CCCN3C[C@H](F)C4)nc3cc(-c4ccc(F)c5sc(N)c(C#N)c45)c(F)cc23)[C@@H]1C` [Compound 31], for which the “GTP-KRAS G12C percent of modification” value in test [1] is given as “C (10%≤percent of modification <50%)”. In addition, the IC50 in the test on pERK in NCI-H358 cells (Homo sapiens, NCI-H358, 0.5 h) is less than 100 nM.
Consider `C=CC(=O)N1CC[C@@H](N(C)c2nc(OC[C@@H]3C[C@@H](F)CN3C)nc3c(F)c(-c4ccc(F)c5sc(N)c(C#N)c45)c(C(F)(F)F)cc23)[C@@H]1C` [Compound 32], for which the “GTP-KRAS G12C percent of modification” value in test [1] is recorded as “C (10%≤percent of modification <50%)”. Also, the IC50 with pERK in NCI-H358 cells (Homo sapiens, NCI-H358, 0.5 h) is less than 100 nM.
On the same counts, the results for `C=CC(=O)N1CC[C@@H](N(C)c2nc(OC[C@@H]3C[C@@H](OC)CN3C)nc3c(F)c(-c4ccc(F)c5sc(N)c(C#N)c45)c(C(F)(F)F)cc23)[C@@H]1C` [Compound 33] are “B (50≤percent of modification <70%)” and less than 100 nM.
As to `C=CC(=O)N1C2CCC1CN(c1nc(OC[C@@]34CCCN3C[C@H](F)C4)nc3c(F)c(-c4ccc(F)c5sc(N)c(C#N)c45)c(C(F)(F)F)cc13)C2` [Compound 34], the “GTP-KRAS G12C percent of modification” value in test [1] was “D (percent of modification <10%)”. Further, the IC50 with pERK in NCI-H358 cells (Homo sapiens, NCI-H358, 0.5 h) was less than 100 nM.
With `C=CC(=O)N1C2CC1CN(c1nc(OC[C@@]34CCCN3C[C@H](F)C4)nc3c(F)c(-c4ccc(F)c5sc(N)c(C#N)c45)c(C(F)(F)F)cc13)C2` [Compound 35], in test [1], the “GTP-KRAS G12C percent of modification” value was “C (10%≤percent of modification <50%)”. Besides, the IC50 in the test with pERK in NCI-H358 cells (Homo sapiens, NCI-H358, 0.5 h) is less than 100 nM.
On the same counts, the results for `C=CC(=O)N1C[C@H]2CC[C@@H]1CN2c1nc(OC[C@@]23CCCN2C[C@H](F)C3)nc2c(F)c(-c3ccc(F)c4sc(N)c(C#N)c34)c(C(F)(F)F)cc12` [Compound 36] are “D (percent of modification <10%)” and 100 to 1000 nM.
Taken in the same sequence, the figures for `C=CC(=O)N1CC[C@@H](N(C)c2nc(OC[C@@H]3C[C@@H](OC)CN3CC)nc3c(F)c(-c4ccc(F)c5sc(N)c(C#N)c45)c(C(F)(F)F)cc23)[C@@H]1C` [Compound 101] were “B (50≤percent of modification <70%)” and less than 100 nM.
On the same counts, the results for `C=CC(=O)N1CC[C@@H](N(C)c2nc(OC[C@@H]3C[C@@H](OC)CN3CC)nc3c(F)c(-c4ccc(F)c5sc(N)c(C#N)c45)c(C(F)(F)F)cc23)[C@H]1C` [Compound 104] are “A (percent of modification ≥70%)” and less than 100 nM.
On to `C=CC(=O)N1CC[C@@H](N(C)c2nc(OC[C@@H]3C[C@@H](F)CN3CC)nc3c(F)c(-c4ccc(F)c5sc(N)c(C#N)c45)c(Cl)cc23)[C@@H]1C` [Compound 105], for which the “GTP-KRAS G12C percent of modification” value in test [1] is “C (10%≤percent of modification <50%)”. Also, the IC50 in the test with pERK in NCI-H358 cells (Homo sapiens, NCI-H358, 0.5 h) is less than 100 nM.
Taken in the same sequence, the figures for `C=CC(=O)N1CCN(c2nc(OC[C@@]34CCCN3C[C@H](F)C4)nc3c(F)c(-c4ccc(F)c5sc(N)c(C#N)c45)c(C(F)(F)F)cc23)C2CC21` (some centres unmarked) [Compound 106] were “C (10%≤percent of modification <50%)” and less than 100 nM.
On the same counts, the results for `C=CC(=O)N1CC[C@@H](N(C)c2nc(OC[C@@H]3C[C@@H](F)CN3CC)nc3c(F)c(-c4ccc(F)c5sc(N)c(C#N)c45)c(C(F)(F)F)cc23)[C@H]1C` [Compound 107] are “A (percent of modification ≥70%)” and less than 100 nM.
On the same counts, the results for `C=CC(=O)N1C[C@H](N(C)c2nc(OC[C@@]34CCCN3C[C@H](F)C4)nc3c(F)c(-c4ccc(F)c5sc(N)c(C#N)c45)c(C(F)(F)F)cc23)C[C@@H]1C` [Compound 108] are “B (50≤percent of modification <70%)” and less than 100 nM.
`C=CC(=O)N1C[C@H](N(C)c2nc(OC[C@@]34CCCN3C[C@H](F)C4)nc3cc(-c4ccc(F)c5sc(N)c(C#N)c45)c(F)cc23)C[C@@H]1C` [Compound 109]: in test [1], the “GTP-KRAS G12C percent of modification” value is listed as “C (10%≤percent of modification <50%)”. Moreover, in the test with pERK in NCI-H358 cells (Homo sapiens, NCI-H358, 0.5 h), the IC50 is less than 100 nM.
On the same counts, the results for `C=CC(=O)N1CC[C@@H](N(C)c2nc(OC[C@@]34CCCN3C[C@H](F)C4)nc3cc(-c4nc(N)cc(C)c4C(F)(F)F)c(F)cc23)[C@H]1C` [Compound 110] are “B (50≤percent of modification <70%)” and 100 to 1000 nM.
In the case of `C=CC(=O)N1CC[C@@H](N(C)c2nc(OC[C@@H]3CC4(CC4)CN3C)nc3c(F)c(-c4ccc(F)c5sc(N)c(C#N)c45)c(C(F)(F)F)cc23)[C@@H]1C` [Compound 112], the “GTP-KRAS G12C percent of modification” value in test [1] is “D (percent of modification <10%)”. The IC50 in the test with pERK in NCI-H358 cells was 100 to 1000 nM.
Regarding `C=CC(=O)N1CC[C@@H](N(C)c2nc(OC[C@@]34CCCN3C[C@H](F)C4)nc3c(F)c(-c4nc(N)cc(C)c4C(F)(F)F)ccc23)[C@H]1C` [Compound 115], in test [1], the “GTP-KRAS G12C percent of modification” value is on record as “A (percent of modification ≥70%)”. In addition, the 50% inhibitory concentration (IC50) in the test on pERK in NCI-H358 cells (Homo sapiens, NCI-H358, 0.5 h) was 100 to 1000 nM.
On the same counts, the results for `C=CC(=O)N1CC[C@@H](N(C)c2nc(OC[C@@H]3CCCN3C)nc3c(F)c(-c4nc(N)cc(C)c4C(F)(F)F)c(C(F)(F)F)cc23)[C@H]1C` [Compound 122] are “B (50≤percent of modification <70%)” and 100 to 1000 nM.
Consider `C=CC(=O)N1CC[C@@H](N(CC)c2nc(OC[C@@H]3CCCN3C)nc3cc(-c4ccc(F)c5sc(N)c(C#N)c45)c(F)cc23)[C@H]1C` [Compound 138], for which the “GTP-KRAS G12C percent of modification” value in test [1] was “A (percent of modification ≥70%)”. The compound also had an IC50 with pERK in NCI-H358 cells (Homo sapiens, NCI-H358, 0.5 h) of less than 100 nM.
On the same counts, the results for `C=CC(=O)N1CC[C@@H](N(CC)c2nc(OC[C@@H]3C[C@@H](F)CN3C)nc3cc(-c4ccc(F)c5sc(N)c(C#N)c45)c(F)cc23)[C@H]1C` [Compound 139] are “A (percent of modification ≥70%)” and 100 to 1000 nM.
On the same counts, the results for `C=CC(=O)N1CC[C@@H](N(CC)c2nc(OC[C@@H]3C[C@@H](OC)CN3C)nc3cc(-c4ccc(F)c5sc(N)c(C#N)c45)c(F)cc23)[C@H]1C` [Compound 140] are “A (percent of modification ≥70%)” and less than 100 nM.
